Test results from paper PMC9599717, “The Multicellular Effects of VDAC1 N-Terminal-Derived Peptide” (Biomolecules, 2022).

How the values were obtained:
Assay type in all cases: cell-based, human
U-87MG cells [1] = experiment: Live-cell imaging (HoloMonitor) of cell division and re-fusion of daughter cells; parameters: dose or concentration left out as unconfirmed; conditions: 24 h incubation
Method: (§1) Cells were seeded in a 6-well plates, treated with D-Δ(1-18)N-Ter-Antp peptide for 24 h, and monitored with the Holomonitor live cell imaging system (Holographic Imaging, Lund, Sweden) for 24 h at 37 °C and 5% CO2 or with a microscope (LX2-KSP; Olympus, Shinjuku, Tokyo, Japan), with images captured by a CCD camera.
Figure 8 D-Δ(1-18)N-Ter-Antp peptide induced apoptosis and altered cell division. (A) HeLa cells were treated with D-Δ1-18N-Ter-Antp (5 μM, 24 h) and monitored using a live-imaging microscope (HoloMonitor). The time course of cell division is presented. Division–fusion phase times are represented in relation to D-Δ(1-18)N-Ter-Antp administration time (T = 0). i. The cells are in a pre-division stage. ii. The cell divides into two cells. iii. The cell becomes partially fused. iv. The cells become fully fused into one large cell. v. Finally, they become an apoptotic cell. (B,C) HeLa cells incubated with the peptide (10 μM, 24 h) and then stained with anti-tubulin antibodies, followed by secondary anti-mouse-cy3 antibodies (red) followed by actin staining with Phalloidin-488 (green), nuclei stained with DAPI (blue) and visualized by confocal microscopy. Cells with divided nuclei that were connected or in a re-fused state are circled (C). (D) Schematic illustration of cell division phases of control and D-Δ(1-18)N-Ter-Antp peptide-treated cells.
Figure A1 Vedio S1. […]

U-87MG cells [2] = experiment: Cell senescence assay (β-galactosidase activity); conditions: 12 h / 6 h (supplementary method)
Method: Figure 3 The D-Δ(1-18)N-Ter-Antp peptide induced autophagy and cellular senescence and altered the expression of apoptosis-related proteins. (A,B) U-87MG cells were treated with the indicated concentrations of D-Δ(1-18)N-Ter-Antp peptide for 12 h and then were subjected to immunoblotting for caspase-9, AIF, Bcl-xL, Bcl-2, and Bax and the relative expression level was quantified (B). (C,D) U-87MG cells were treated with the indicated concentrations of D-Δ(1-18)N-Ter-Antp peptide for 12 h and then subjected to immunoblotting for the autophagy markers LC3-I and LC3-II (C) and LC3-II quantification (D). (E,F) U-87MG cells were treated with the indicated concentrations of D-Δ(1-18)N-Ter-Antp peptide for 12 h and then subjected to β-gal activity (blue). Mouse embryonic fibroblast cells at passage 10 (MEF-P10) served as a positive control of senescent cells. Quantification of β-gal staining intensity (F). Data are presented as the mean ± SD, n = 3, * p < 0.05; ** p < 0.01; *** p < 0.001 versus control group. NS, non-specific. […]
color was read in a spectrophotometer at 680 nm. […]
U-87MG cells were treated with D-Δ(1-18)N-Ter-Antp peptide in serum-free DMEM media for 6 h at 37℃, incubated with acridine orange (1 μg/ml) for 15 min, visualized by fluorescence microscopy (Olympus LX2 - KSP, Tokyo, Japan), and images were captured with a CCD camera. About 200 cells were counted for each […]

U-87MG cells [3] = experiment: Cell morphology / cell size by light microscopy; conditions: 16 h treatment
Method: as §1
Figure 2 D-Δ(1-18)N-Ter-Antp-induced changes in cell morphology and cell membrane permeability. (A,B) U-87MG cells were treated with the indicated concentrations of D-Δ(1-18)N-Ter-Antp peptide for 16 h, and cell morphology was monitored by light microscope (A). Quantification of cell size (B). (C,D) U-87MG cells were untreated or treated with 10 μM of D-Δ(1-18)N-Ter-Antp peptide or N-TerΔ(21-26)-Antp for 24 h, and cell morphology was monitored by light microscope (C). Quantification of cell size (D). (E,F) Cells were stained with anti-vinculin antibodies, followed by secondary anti-mouse-cy3 antibodies. Scale bars are 20 μm. White arrows point to focal adhesion (E). Quantification of vinculin staining intensity (F). (G) D-Δ(1-18)N-Ter-Antp-induced cell membrane permeability changes in HeLa cells. Cells were treated with D-Δ(1-18)N-Ter-Antp peptide (10 µM) for 6 h and subjected to FM4-64 dye staining. Yellow arrows point to apoptotic cells with apoptotic bodies. (H) Quantification of fluorescence intensity of FM4-64. * p < 0.05, *** p < 0.001, **** p < 0.0001 (n = 3). […]

19-FTKGYGFGL-26- RQIKIWFQNRRMKWKK [D-Δ(1-18)N-Ter-Antp]
Percentage of cells with re-fusion of daughter cells (U-87MG cells [1]): 60–80%
Cellular senescence, β-galactosidase activity (U-87MG cells [2]): showed cellular senescence
Enlarged cell area relative to untreated cells (U-87MG cells [3]): up to 3 fold
